Assay results taken from EP3318253B1, “COMPOSITIONS COMPRISING WNT INHIBITORS FOR TREATING CANCER” (Schmidt-Wolf, Ingo, priority 2010, dated 2012).

What was measured:
[1] = tested on: PBL; test: Cell viability by DiOC6 staining, flow cytometry (normal control cells); settings: Homo sapiens, PBL, 72 h
Experimental: Peripheral blood mononuclear cells (PBMC) and PBL were isolated from blood samples of healthy volunteers by Ficoll density gradient centrifugation (Lymphoprep, Nycomed, Oslo, Norway).
1x10^5 Cells were cultured in 3 ml Medium in 6-well plates. […] The apoptosis assay was performed with 3'3-dihexyloxacarbocyanine iodide (DiOC6) detecting mitochondrial membrane potential in viable cells, and propidium iodide (PI) which binds to DNA in necrotic cells, measured by a fluorescence-activated cell sorter (FACS).
For FACS analysis, 500µl staining solution containing 80 nM DiOC6 in FACS buffer, consisting of deficient RPMI-medium with 0.5% bovine serum albumin (BSA), was mixed with equal volumes of the cell sample in a glass tube and incubated at 37°C for 15 min. After a washing step with PBS/BSA 1% the cells were re-suspended in 500µl PBS/BSA 1%. After addition of 5µl PI-solution (100µg/ml) the cells were analyzed by FACS. Using this assay, viable cells reveal high fluorescence intensity for DiOC6 and a low expression for PI. In contrary, apoptotic cells show a low expression for DiOC6 and also a low expression for PI (2). Finally, necrotic cells show a low expression for DiOC6 and a high expression for PI.
PBMC and PBL derived from healthy individuals were used as normal controls. 1x10^5 cells were cultured with each compound using various concentrations for three days. Then cell viability was measured by DIOC6 staining by flow cytometry. Results represent data from two to four separate experiments each.
PBMC and PBL derived from healthy individuals were used as normal controls. 1x10^5 cells were cultured with each compound using various concentrations for three days. Then cell viability was measured by DIOC6 staining by flow cytometry. Results represent data from 2 to 4 separate experiments each.
1x10^5 Cells were cultured in 3 ml Medium in 6-well plates. […] The apoptosis assay was performed with 3' 3-dihexyloxacarbocyanine iodide (DiOC6) detecting mitochondrial membrane potential in viable cells, and propidium iodide (PI) which binds to DNA in necrotic cells, measured by a fluorescence-activated cell sorter (FACS).
PBL derived from healthy individuals were used as controls. 1x10^5 cells were cultured with each compound using various concentrations for three days. Then cell viability was measured by DIOC6 staining by flow cytometry and IC 50 rates were determined. Results represent data from 2 to 4 separate experiments each.
PBMC and PBL derived from healthy individuals were used as controls. 1x10^5 cells were cultured with each compound using various concentrations for three days.

[2] = tested on: OPM-2 myeloma cells; test: Cell viability by DiOC6 staining, flow cytometry; type: cell-based, human; settings: Homo sapiens, 72 h; OPM-2; 1x10^5 cells cultured three days, various concentrations
Experimental: (§1) Experiments were performed as reported recently.
(§2) PBL derived from healthy individuals were used as controls. […] ND, not done.

[3] = tested on: OPM-2, U266 and RPMI 8226 cells; test: Cell viability by DiOC6 staining in myeloma cell lines (mean IC50, combinations); type: cell-based, human; settings: Homo sapiens; mean of the IC50 results in OPM-2, U266 and RPMI 8226 cells
Experimental: A mean IC50 value in myeloma cells was determined using the mean of the IC50 results determined in OPM-2, U266 and RPMI 8226 cells.
(§3) • Figure 1. […] Data are shown as mean ± SD. • Figure 2. […] Data are shown as mean ± SD. • Figure 3. […] (A) Flow cytometric results. […] Finally, ECL reagent was utilized for detection. • Figure 4C. […] Finally, ECL reagent was utilized for detection. • Figure 5. Effect of EA on viability of myeloma primary cells. […] Results represent data from two separate experiments. Data are shown as mean. • Figure 6. […] (A) Tumor growth and (B) overall survival were measured. Six animals were assayed per group.
Experiments were performed as reported recently. […]

[4] = tested on: lymphoma and myeloma cell lines; test: Titration of the optimal concentration; type: cell-based, human; settings: without significantly deteriorating viability of normal PBMCs, data not shown
Source text: (§4) As a first step, we determined the optimal concentration of EA in various lymphoma and myeloma cell lines. Subsequently, we determined the optimal concentration of EA in PBMCs derived from healthy individuals in order to check for toxicity. […] The effect of DMSO as a toxic solvent was only observed in the myeloma cell line OPM-2 (Figure 1C). As a control, peripheral blood mononuclear cells (PBMCs) were investigated by FACS analysis. A toxic effect affecting the cells induced a shift from viable, DiOC6-positive cells to apoptotic, DiOC6-negative cells.
as §1
as §4, with “CIC” for “EA”, “(Fig. 7C).” for “(Figure 1C).”

[5] = tested on: Wnt/beta catenin; settings: Gen-plus drug library, 960 compounds; cited from earlier work
[6] = tested on: primary CLL cells; settings: earlier work of the group; cited from earlier work
[7] = tested on: PBMC; test: Cell viability by DiOC6 staining, flow cytometry (normal control cells); type: cell-based, human
Experimental: PBMCs were isolated from blood of healthy donors by Ficoll-Hypaque density gradient centrifugation. Blood from buffy coats was mixed 1:2 with PBS/1% BSA (both PAA, Cölbe, Germany) and used for a ficoll gradient (LymphoPrep, PAA, Cölbe, Germany). After the centrifugation at 800 g for 30 minutes, the leukocyte layer was removed and transferred to new tubes. Subsequently, these cells were washed 3 times with PBS/1%BSA and re-suspended in fresh medium, consisting of RPMI medium (PAA, Cölbe, Germany) with 10% fetal calf serum (Invitrogen, Karlsruhe, Germany), 2.5% hepes buffer solution (PAA, Cölbe, Germany), and 1% penicillin/streptomycin (PAA, Cölbe, Germany).
as §1

[8] = tested on: β-catenin; test: Western blot, β-catenin expression in RPMI 8226 cells; type: cell-based, human; settings: RPMI 8226 cells treated for 24h
Experimental: (§5) Western blot was performed as described recently^16.
as §3
(§6) Western blot was performed as described recently.
(§7) • Figure 7. […] Data are shown as mean ± SD. • Figure 8. […] Data are shown as mean ± SD. • Figure 9. Effect of CIC on the Wnt/beta catenin pathway. (A) Flow cytometric results. […] Finally, ECL reagent was utilized for detection. • Figure 10C. […] Finally, ECL reagent was utilized for detection. • Figure 11. […] (A) Tumor growth and (B) overall survival were measured. Six animals were assayed per group. HD CIC.

[9] = tested on: U266; test: Cell viability by DiOC6 staining, flow cytometry; type: cell-based; settings: Homo sapiens, U-266, 72 h, 1x10^5 cells cultured three days, various concentrations
Experimental: as §1, §2

[10] = tested on: RPMI 8226; test: Cell viability by DiOC6 staining, flow cytometry; type: cell-based; settings: Homo sapiens, 72 h, 1x10^5 cells cultured three days, various concentrations
Experimental: as §1, §2

[11] = tested on: OCI-Ly8 LAM53; test: Cell viability by DiOC6 staining, flow cytometry; type: cell-based; settings: Homo sapiens
Experimental: as §1, §2

[12] = tested on: Raji; test: Cell viability by DiOC6 staining, flow cytometry; type: cell-based; settings: Homo sapiens
Experimental: as §1, §2

[13] = tested on: SU-DHL 4; test: Cell viability by DiOC6 staining, flow cytometry; type: cell-based; settings: Homo sapiens
Experimental: as §1, §2

[14] = tested on: lymphoma cell lines; test: Cell viability by DiOC6 staining in lymphoma cell lines; type: cell-based, human; settings: result in words
Experimental: as §1, §2

[15] = tested on: beta catenin; test: Western blot, Wnt/beta catenin pathway in lymphoma cells; type: cell-based, human
Experimental: as §5, §3, §6, §7

Structure (SMILES) | IC50 [1] | IC50 [2] | IC50 [3] | most effective concentration to initialize cell death [4] | identified in TOPflash reporter screen [5] | cell death in primary CLL cells [6] | β-catenin expression [8] | IC50 [9] | IC50 [10] | viability of lymphoma cell lines in vitro [14] | beta catenin expression in lymphoma cells [15] | other results
Cc1cc(C2CCCCC2)n(O)c(=O)c1 [CIC, ciclopirox olamine] | 9 µM | 5 µM | 30 µM | 30 µM | Wnt/beta catenin inhibitors | selectively induced cell death | slightly decreased | 6 µM | 6 µM | significantly (p<0.05) decreased | down regulated | IC50 ([7]; Homo sapiens, PBMC, after 72 h): > 400 µM; IC50 ([7]; PBMC from healthy individuals, three days): > 400 µM; effect on normal PBMC and PBL ([7]; normal PBMC and PBL, result in words): marginal; IC50 ([11]; OCI-Ly8, LAM-53, after 72 h): 2 µM; IC50 ([12]; after 72 h): 6 µM; IC50 ([13]; SU-DHL-4, after 72 h): 7 µM
C=C(CC)C(=O)c1ccc(OCC(=O)O)c(Cl)c1Cl [EA, 2-[2,3-dichloro-4-(2-methylidenebutanoyl)phenoxy] acetic acid] | 10 µM | 22 µM | 30 µM | 30 µM | Wnt/beta catenin inhibitors | selectively induced cell death | slightly increased | 60 µM | 8 µM | significantly (p<0.05) decreased | down regulated | IC50 ([7]; Homo sapiens, 72 h, PBMC from healthy individuals, three days): > 400 µM; IC50 ([11]; 72 h, OCI-Ly8 LAM53, 1x10^5 cells cultured three days, various concentrations): 57 µM; IC50 ([12]; 72 h, 1x10^5 cells cultured three days, various concentrations): 33 µM; IC50 ([13]; 72 h, SU-DHL 4, 1x10^5 cells cultured three days, various concentrations): 58 µM
